Assay results as given in patent US20210198319A1, “CYTOTOXIC PEPTIDES AND CONJUGATES THEREOF” (AEBI LTD., priority 2017, published 2021).
No end group written: not given here.

Columns and labels:
cells = assay: Toxicity to cells of library peptides; assay type: cell-based; details: cyclic peptide library, after optimization process
[1] = molecular target: human eukaryotic elongation factor 2 (eEF2) (Homo sapiens, UniProt P13639); assay: Cyclic peptide library tested for binding to eEF2; details: after optimization process
Text: Using the technique described in WO 2007/010525, a library of cyclic peptides was generated and tested for binding to human eukaryotic elongation factor 2 (eEF2).

Substance: Cys-Ser-Ala-Arg-Trp-Gly-Pro-Ile-Met-Pro-Trp-Cys (CSARWGPIMPWC; also: cyclic, ring type not given here) [GW2]
- toxicity to cells (rank among library peptides) (cells): most potent peptide
- binding to eEF2 (rank among library peptides) [1]: most potent peptide
